Test results reported in patent US20100267561A1, “HERBICIDAL PYRIDAZINONE DERIVATIVES” (priority 2007, published 2010).

Tests used:
Format in all cases: in vivo
[1] = test system: chickweed (Stellaria media); experiment: Test B postemergence plant response; settings: for Chickweed plant response rating: 8 g ai/ha, postemergence, 0-100 scale; for Plant response rating, Chickweed: Postemergence
Summary of the method: (§1)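 Visual injury ratings on a 0–100 scale, where 100 means complete control, were made 13 to 15 days after postemergence treatment of greenhouse-grown plants at the 1- to 4-leaf stage.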

[2] = test system: canarygrass (Phalaris minor); experiment: Test B postemergence plant response; settings: for Canarygrass plant response rating: 8 g ai/ha, postemergence, 0-100 scale; for Plant response rating, Canarygrass: Postemergence
Summary of the method: as §1

[3] = test system: windgrass (Apera spica-venti); experiment: Test B postemergence plant response; settings: for Windgrass plant response rating: postemergence, 0-100 scale; for Plant response rating, Windgrass: Postemergence
Summary of the method: as §1

[4] = test system: winter barley (Hordeum vulgare); experiment: Test B postemergence plant response; settings: for Barley plant response rating: 8 g ai/ha, postemergence, 0-100 scale; for Plant response rating, Barley: Postemergence
Summary of the method: as §1

[5] = test system: large crabgrass (Digitaria sanguinalis); experiment: Test A pre-/postemergence plant response
Summary of the method: (§2)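 Greenhouse pot test: loam–sand soil; pre- and postemergence sprays applied same day; post plants 2–10 cm, 1–2 leaves. Readout ~10 d, visual % injury vs untreated (0 = none, 100 = complete control).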

[6] = test system: wheat (Triticum aestivum); experiment: Test A pre-/postemergence plant response
Summary of the method: as §2

[7] = test system: barnyardgrass (Echinochloa crus-galli); experiment: Test A pre-/postemergence plant response
Summary of the method: as §2

corn (Zea mays) = experiment: Test A pre-/postemergence plant response
Summary of the method: as §2

[8] = test system: pigweed (Amaranthus retroflexus); experiment: Test A pre-/postemergence plant response
Summary of the method: as §2

[9] = test system: velvetleaf (Abutilon theophrasti); experiment: Test A pre-/postemergence plant response
Summary of the method: as §2

[10] = test system: morningglory (Ipomoea coccinea); experiment: Test A pre-/postemergence plant response
Summary of the method: as §2

[11] = test system: giant foxtail (Setaria faberi); experiment: Test A pre-/postemergence plant response
Summary of the method: as §2

[12] = test system: barnyardgrass (Echinochloa crus-galli); experiment: Test B flooded paddy test plant response
Summary of the method: (§3)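 Paddy-water application to 2-leaf plants in pots held under 3 cm of flooding; response is a 0–100 visual control rating against controls after 13 to 15 days, and a dash marks a missing result.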

[13] = test system: umbrella sedge (Cyperus difformis); experiment: Test B flooded paddy test plant response
Summary of the method: as §3

[14] = 31 g ai/ha, scale 0 to 100, 0 no effect, 100 complete control
[15] = 62 g ai/ha, scale 0 to 100, 0 no effect, 100 complete control
[16] = 16 g ai/ha, scale 0 to 100, 0 no effect, 100 complete control
[17] = Postemergence, 31 g ai/ha, 0 to 100 scale (0 no effect, 100 complete control)
[18] = Postemergence, 125 g ai/ha, 0 to 100 scale, 0 no effect, 100 complete control
[19] = Preemergence, 31 g ai/ha, 0 to 100 scale, 0 is no effect, 100 is complete control
[20] = Preemergence, 125 g ai/ha, 0 to 100 scale (0 no effect, 100 complete control)
[21] = Flood (flooded paddy test), 62 g ai/ha, scale 0 to 100, 0 no effect, 100 complete control
[22] = Flood (flooded paddy test), 125 g ai/ha, scale 0 to 100, 0 no effect, 100 complete control
[23] = Flood (flooded paddy test), 250 g ai/ha, scale 0 to 100, 0 no effect, 100 complete control
[24] = Flood, 31 g ai/ha, scale 0 to 100
[25] = Postemergence, 500 g ai/ha, 0 to 100 scale, 0 no effect, 100 complete control
[26] = Preemergence, 500 g ai/ha, 0 to 100 scale (0 no effect, 100 complete control)

COC(=O)Oc1cnn(C)c(=O)c1-n1nc(-c2ccc(Cl)cc2)cc1C [Compound 33]
35: Plant response rating, Canarygrass ([2]; 16 g ai/ha, scale 0 to 100) | Plant response rating, Sedge, Umbrella [13, 22]
85: Plant response rating, Barnyardgrass [12, 22]
0: Chickweed plant response rating [1] | Plant response rating, Chickweed ([1]; 16 g ai/ha, scale 0 to 100) | Plant response rating, Chickweed [1, 14] | Plant response rating, Chickweed [1, 15] | Canarygrass plant response rating [2] | Barley plant response rating [4] | Plant response rating, Pigweed [8, 17] | Plant response rating, Pigweed [8, 18] | Plant response rating, Pigweed [8, 20] | Plant response rating, Velvetleaf [9, 17] | Plant response rating, Velvetleaf [9, 18] | Plant response rating, Velvetleaf [9, 19] | Plant response rating, Velvetleaf [9, 20] | Plant response rating, Morningglory [10, 17] | Plant response rating, Morningglory [10, 18] | Plant response rating, Morningglory [10, 19] | Plant response rating, Morningglory [10, 20] | Plant response rating, Sedge, Umbrella [13, 24]
30: Plant response rating, Barley [4, 14] | Plant response rating, Barley [4, 15] | Plant response rating, Corn (corn (Zea mays); [19]) | Plant response rating, Barnyardgrass [12, 24]
100: Plant response rating, Crabgrass, Large [5, 18] | Plant response rating, Crabgrass, Large [5, 20] | Plant response rating, Barnyardgrass [7, 18] | Plant response rating, Barnyardgrass [7, 19] | Plant response rating, Barnyardgrass [7, 20] | Plant response rating, Foxtail, Giant [11, 18] | Plant response rating, Foxtail, Giant [11, 19] | Plant response rating, Foxtail, Giant [11, 20] | Plant response rating, Barnyardgrass [12, 23]
80: Plant response rating, Canarygrass [2, 14] | Plant response rating, Wheat [6, 20]
10: Windgrass plant response rating ([3]; 8 g ai/ha)
25: Plant response rating, Barley [4, 16]
20: Plant response rating, Wheat [6, 17] | Plant response rating, Sedge, Umbrella [13, 21]
90: Plant response rating, Crabgrass, Large [5, 17] | Plant response rating, Crabgrass, Large [5, 19] | Plant response rating, Barnyardgrass [7, 17] | Plant response rating, Corn (corn (Zea mays); [18]) | Plant response rating, Corn (corn (Zea mays); [20]) | Plant response rating, Foxtail, Giant [11, 17]
60: Plant response rating, Corn (corn (Zea mays); [17]) | Plant response rating, Barnyardgrass [12, 21] | Plant response rating, Sedge, Umbrella [13, 23]
50: Plant response rating, Windgrass ([3]; 16 g ai/ha, scale 0 to 100) | Plant response rating, Wheat [6, 19]
70: Plant response rating, Windgrass [3, 15] | Plant response rating, Wheat [6, 18]

CCc1cc(-c2ccc(Cl)c(Cl)c2)nn1-c1c(O)cnn(C)c1=O [Compound 20]
85: Plant response rating, Windgrass [3, 14]
90: Plant response rating, Windgrass ([3]; 62 g ai/ha, scale 0 to 100) | Plant response rating, Crabgrass, Large [5, 20] | Plant response rating, Barnyardgrass [7, 20] | Plant response rating, Corn (corn (Zea mays); [25]) | Plant response rating, Corn (corn (Zea mays); [26]) | Plant response rating, Foxtail, Giant [11, 18] | Plant response rating, Foxtail, Giant [11, 20]
30: Plant response rating, Canarygrass ([2]; 16 g ai/ha, scale 0 to 100)
0: Chickweed plant response rating [1] | Plant response rating, Chickweed ([1]; 16 g ai/ha, scale 0 to 100) | Plant response rating, Chickweed [1, 14] | Plant response rating, Chickweed ([1]; 62 g ai/ha, scale 0 to 100) | Barley plant response rating [4] | Plant response rating, Barley [4, 16] | Plant response rating, Barley [4, 14] | Plant response rating, Barley ([4]; 62 g ai/ha, scale 0 to 100) | Plant response rating, Pigweed [8, 18] | Plant response rating, Pigweed [8, 25] | Plant response rating, Pigweed [8, 20] | Plant response rating, Pigweed [8, 26] | Plant response rating, Velvetleaf [9, 18] | Plant response rating, Velvetleaf [9, 25] | Plant response rating, Velvetleaf [9, 20] | Plant response rating, Velvetleaf [9, 26] | Plant response rating, Morningglory [10, 18] | Plant response rating, Morningglory [10, 25] | Plant response rating, Morningglory [10, 20] | Plant response rating, Morningglory [10, 26] | Plant response rating, Barnyardgrass [12, 21] | Plant response rating, Barnyardgrass [12, 22] | Plant response rating, Barnyardgrass [12, 23] | Plant response rating, Barnyardgrass [12, 24] | Plant response rating, Sedge, Umbrella [13, 21] | Plant response rating, Sedge, Umbrella [13, 22] | Plant response rating, Sedge, Umbrella [13, 23] | Plant response rating, Sedge, Umbrella [13, 24]
70: Plant response rating, Windgrass ([3]; 16 g ai/ha, scale 0 to 100) | Plant response rating, Wheat [6, 25] | Plant response rating, Corn (corn (Zea mays); [18])
80: Plant response rating, Crabgrass, Large [5, 18] | Plant response rating, Wheat [6, 26] | Plant response rating, Barnyardgrass [7, 18]
5: Canarygrass plant response rating [2]
20: Windgrass plant response rating ([3]; 8 g ai/ha)
50: Plant response rating, Canarygrass [2, 14] | Plant response rating, Wheat [6, 18]
60: Plant response rating, Wheat [6, 20] | Plant response rating, Corn (corn (Zea mays); [20])
100: Plant response rating, Crabgrass, Large [5, 25] | Plant response rating, Crabgrass, Large [5, 26] | Plant response rating, Barnyardgrass [7, 25] | Plant response rating, Barnyardgrass [7, 26] | Plant response rating, Foxtail, Giant [11, 25] | Plant response rating, Foxtail, Giant [11, 26]

CCc1cc(-c2ccc(Br)cc2)nn1-c1c(O)cnn(C)c1=O [Compound 61]
80: Canarygrass plant response rating [2] | Plant response rating, Crabgrass, Large [5, 19] | Plant response rating, Wheat [6, 17]
90: Windgrass plant response rating ([3]; 8 g ai/ha) | Plant response rating, Barley [4, 16] | Plant response rating, Barley [4, 14] | Plant response rating, Barley [4, 15] | Plant response rating, Wheat [6, 18] | Plant response rating, Wheat [6, 20] | Plant response rating, Barnyardgrass [7, 19] | Plant response rating, Corn (corn (Zea mays); [20])
50: Plant response rating, Barnyardgrass [12, 22]
70: Barley plant response rating [4] | Plant response rating, Wheat [6, 19] | Plant response rating, Corn (corn (Zea mays); [19])
100: Windgrass plant response rating ([3]; 16 g ai/ha) | Plant response rating, Windgrass ([3]; 31 g ai/ha, scale 0 to 100) | Plant response rating, Windgrass [3, 15] | Plant response rating, Crabgrass, Large [5, 17] | Plant response rating, Crabgrass, Large [5, 18] | Plant response rating, Crabgrass, Large [5, 20] | Plant response rating, Barnyardgrass [7, 17] | Plant response rating, Barnyardgrass [7, 18] | Plant response rating, Barnyardgrass [7, 20] | Plant response rating, Corn (corn (Zea mays); [17]) | Plant response rating, Corn (corn (Zea mays); [18]) | Plant response rating, Foxtail, Giant [11, 17] | Plant response rating, Foxtail, Giant [11, 18] | Plant response rating, Foxtail, Giant [11, 19] | Plant response rating, Foxtail, Giant [11, 20] | Plant response rating, Barnyardgrass [12, 23]
30: Plant response rating, Sedge, Umbrella [13, 23]
85: Plant response rating, Canarygrass ([2]; 16 g ai/ha, scale 0 to 100) | Plant response rating, Canarygrass ([2]; 31 g ai/ha, scale 0 to 100) | Plant response rating, Canarygrass [2, 15]
0: Chickweed plant response rating [1] | Plant response rating, Chickweed ([1]; 16 g ai/ha, scale 0 to 100) | Plant response rating, Chickweed ([1]; 31 g ai/ha, scale 0 to 100) | Plant response rating, Chickweed [1, 15] | Plant response rating, Pigweed [8, 17] | Plant response rating, Pigweed [8, 18] | Plant response rating, Pigweed [8, 19] | Plant response rating, Pigweed [8, 20] | Plant response rating, Velvetleaf [9, 17] | Plant response rating, Velvetleaf [9, 18] | Plant response rating, Velvetleaf [9, 19] | Plant response rating, Velvetleaf [9, 20] | Plant response rating, Morningglory [10, 17] | Plant response rating, Morningglory [10, 18] | Plant response rating, Morningglory [10, 19] | Plant response rating, Morningglory [10, 20] | Plant response rating, Barnyardgrass [12, 21] | Plant response rating, Barnyardgrass [12, 24] | Plant response rating, Sedge, Umbrella [13, 21] | Plant response rating, Sedge, Umbrella [13, 22] | Plant response rating, Sedge, Umbrella [13, 24]
